From patent EP2739296B1, “PLANT MATERIAL FROM OXYDENDRUM ARBOREUM FOR COSMETIC USE” (Sederma, priority 2011, dated 2013)

Assays:
Assay type in all cases: cell-based
Human melanocytes = experiment: Melanin synthesis in human melanocytes; conditions: positive control, concentration not given; 5 days of culture; n=5; p<0.01
Method: Human melanocytes were seeded in 24-well plates. After 24 h of attachment, the cells are in contact with the test products. After 5 days of culture, the layers are rinsed, the total melanins are extracted in sodium hydroxide and assayed spectrophotometrically at 490 nm. For tyrosinase, an identical culture protocol is followed and then the enzyme is extracted from the cells and DOPA oxidase activity is measured spectrophotometrically at 37°C with a solution of L-DOPA to 0.2%. The data are normalized using a viability assay. Table 9: inhibition of melanogenese in the presence of the extract of Oxydendrum arboreum cell culture compared with control. (n=5)

tyrosinase = biological target: T1, tyrosinase (Homo sapiens, UniProt P14679); experiment: Tyrosinase (DOPA oxidase) activity extracted from human melanocytes; conditions: positive control, concentration not given; 5 days of culture; n=5; p<0.01
T1 sequence (P14679 19-529): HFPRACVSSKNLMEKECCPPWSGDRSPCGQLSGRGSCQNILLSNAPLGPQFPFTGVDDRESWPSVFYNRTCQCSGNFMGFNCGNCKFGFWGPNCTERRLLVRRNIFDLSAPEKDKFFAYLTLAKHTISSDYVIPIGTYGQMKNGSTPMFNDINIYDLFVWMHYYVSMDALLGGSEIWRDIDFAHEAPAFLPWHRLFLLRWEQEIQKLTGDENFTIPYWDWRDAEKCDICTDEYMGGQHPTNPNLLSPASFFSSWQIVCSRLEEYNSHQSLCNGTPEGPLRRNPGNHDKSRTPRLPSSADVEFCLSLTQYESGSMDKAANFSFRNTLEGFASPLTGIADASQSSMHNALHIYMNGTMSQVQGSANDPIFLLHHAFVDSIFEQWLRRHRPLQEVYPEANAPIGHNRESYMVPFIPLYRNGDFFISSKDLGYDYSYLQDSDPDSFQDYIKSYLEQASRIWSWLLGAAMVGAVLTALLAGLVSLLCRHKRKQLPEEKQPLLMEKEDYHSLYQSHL

collagen I = experiment: Collagen I synthesis by normal human fibroblasts (immuno-labeling); conditions: positive control, concentration not given; NHF, 7 days; p<0.01
Method: Normal human fibroblasts (NHF) are cultivated in plate MW24 for 24 hours. The cells are in contact or not of test products at various concentrations for 7 days. The synthesis of collagen I is then quantified by immuno-labeling fixed on the layer. Table 7: increase of collagen I on NHF in the presence of the extract of Oxydendrum arboretum cell culture compared with control. (n=4 wells/ 20 photos)

| Compound | Melanin (% Change / Control) (Human melanocytes) | Tyrosinase (% Change / Control) (tyrosinase) | Collagen I Synthesis % change / control (collagen I) |
| --- | --- | --- | --- |
| OC[C@H]1O[C@@H](Oc2ccc(O)cc2)[C@H](O)[C@@H](O)[C@@H]1O [Arbutin] | -56% | -48% | – |
| O=C1O[C@H]([C@@H](O)CO)C(O)=C1O [Vitamin C] | – | – | +236% ; p<0.01 |
